Among the data in BindingDB's records for doi:10.7270/Q2MS3R62 (Burnham Center For Chemical Genomics, 2007) are IC50 values, retold here.

The target in this experiment is Heat shock cognate 71 kDa protein (Homo sapiens, UniProt P11142).

What is called IC50 is the concentration needed to halve the response being measured.

Chain of Heat shock cognate 71 kDa protein (P11142 whole entry): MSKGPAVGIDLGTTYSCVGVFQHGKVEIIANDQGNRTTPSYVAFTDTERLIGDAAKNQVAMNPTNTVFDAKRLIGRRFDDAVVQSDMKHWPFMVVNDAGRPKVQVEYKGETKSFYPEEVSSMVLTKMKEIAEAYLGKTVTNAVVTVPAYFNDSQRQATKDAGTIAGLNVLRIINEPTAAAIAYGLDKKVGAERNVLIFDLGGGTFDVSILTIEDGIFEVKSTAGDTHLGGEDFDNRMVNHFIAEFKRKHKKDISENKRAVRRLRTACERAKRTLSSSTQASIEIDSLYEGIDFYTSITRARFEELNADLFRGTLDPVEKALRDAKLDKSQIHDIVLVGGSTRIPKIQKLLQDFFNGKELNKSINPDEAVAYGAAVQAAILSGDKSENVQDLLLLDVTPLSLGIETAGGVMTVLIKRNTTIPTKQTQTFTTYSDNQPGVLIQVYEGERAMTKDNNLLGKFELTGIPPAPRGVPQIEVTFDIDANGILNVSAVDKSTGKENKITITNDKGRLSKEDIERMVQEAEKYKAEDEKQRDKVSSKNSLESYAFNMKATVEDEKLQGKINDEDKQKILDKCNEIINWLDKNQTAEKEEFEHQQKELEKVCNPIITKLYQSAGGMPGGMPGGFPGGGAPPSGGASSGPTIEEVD

As for `CC(=O)N1CCC2(CC1)c1c(n[nH]c1C)OC(=N)C2C#N` (configuration not stated) [6-azanyl-1'-ethanoyl-3-methyl-spiro[2H-pyrano[2,3-c]pyrazole-4,4'-piperidine]-5-carbonitrile], half-maximal inhibition (IC50) required 999 µM.

In turn, `C=c1[nH]n(-c2cccc(C(=O)O)c2)c(=O)c1=CC=Cc1ccco1` [SMR000113614] returned an IC50 of 999 µM.
